Like-named read-outs stand apart in the source and are kept apart here.
Columns and labels:
[1] = test system: retinal pigmented epithelial (RPE) cells; assay: RPE cell migration with PDGF; assay type: cell-based; conditions: 100 ng/ml PDGF
Text: The graphs presented in FIG. 15E and 15F show the increasing effect of PDGF concentration on RPE cell migration.

[2] = in vivo, iv
[3] = rabbit, in vivo
Description: Studies were performed in the Dutch-belted rabbit model using […]. Aptamers were administered at a dose level of 1.0 mg/eye, bilaterally via […] intravitreal injection. Samples from the aqueous humor, vitreous humor and plasma were taken before administration of the aptamer and a 0.25 h, 6 h, 24 h, 72 h, 7d, […], and 21d. FIGS. 22A, 22B and 22C show the vitreous humor and/or plasma concentration of each aptamer through 25 days post administration.
The results shown in FIG. 22A were obtained using noncompartmental (NCA) analysis. The volume of rabbit vitreous humor was approximately 1.0-1.5 ml.

PDGF AB and BB = assay: PDGF binding (Kd); design: species or system human
Chain of PDGF AB and BB (P01127 82-190 limits assumed): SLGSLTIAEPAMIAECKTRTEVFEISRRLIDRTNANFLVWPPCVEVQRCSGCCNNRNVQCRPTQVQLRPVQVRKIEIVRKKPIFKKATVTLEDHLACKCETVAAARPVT

PDGF [4] = target: T1, PDGF (Homo sapiens, UniProt P01127); conditions: iv
T1 sequence (P01127 82-190 limits assumed): as above

rat PDGF = rat PDGF (Rattus norvegicus, UniProt Q05028); assay: Rat PDGF binding; conditions: FIG. 14A
Chain of rat PDGF (Q05028 74-182 limits assumed): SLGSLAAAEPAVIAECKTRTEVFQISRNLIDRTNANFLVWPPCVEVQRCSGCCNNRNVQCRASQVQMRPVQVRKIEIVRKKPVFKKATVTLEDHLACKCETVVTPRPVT

[5] = mouse, in vivo; for AUC / MRT / tmax / t½: 10 mg/kg
[6] = rabbit, in vivo; remark: listed apart in the source
PDGF AA isoform = PDGF AA isoform (Homo sapiens, UniProt P04085); assay: PDGF AA isoform binding; conditions: FIG. 13A
[7] = Animal models for glomerulonephritis, restenosis, cancer and pulmonary hypertension; assay type: in vivo
[8] = test system: PDGF-induced 3T3 cell proliferation; assay: PDGF-induced 3T3 cell proliferation; assay type: cell-based; conditions: compared with anti-PDGF antibody (Upstate/Cell Signaling Solutions)
PDGF [9] = target: T1, PDGF; assay: Cellular IC50 of anti-PDGF aptamer; assay type: cell-based

5′-[PEG40K]-NH2-dCdAdGdGdCfUdAfCmG-PEG-dCdGTdAmGdAmGdCdAfUfCmA-PEG-TdGdATfCfCfUmG-3T-3′ [ARC127]
blocking of RPE cell migration [1]: specifically blocks migration of retinal pigmented epithelial (RPE) cells | systemic half life [2]: 6 to 12 h | Cl [3]: 0.29 mL?d^−1 | Cmax [3]: ~100 µM | Vss [3]: 1.42 mL | half life in the vitreous humor [3]: 84 h | t1/2 [3]: 92.9 h | tmax [3]: 0.25 h | recognition of BB and AB isoforms of PDGF (PDGF AB and BB; FIGS. 13A and 13B): recognizes the BB and AB isoforms of PDGF | Kd (PDGF AB and BB; anti-PDGF aptamer, isoform not stated, read-out: dissociation constant (Kd)): 0.1 nM | Kd (PDGF AB and BB; read-out: Kd, PDGF AB and BB): 0.1 nM | duration of measurable activity in vivo (PDGF [4]): 48 h | affinity for human and rat PDGFs (rat PDGF): equivalent affinity | bioavailability ([5]; ip): 62.5% | AUC ([5]; ip): 143.6055 µM·h | MRT ([5]; ip): 11.23 h | tmax ([5]; ip): 8 h | t½ ([5]; ip): 7.86 h | AUC ([5]; iv): 229.6868 µM·h | MRT ([5]; iv): 6.57 h | tmax ([5]; iv): 2 h | t½ ([5]; iv): 8.60 h | bioavailability ([5]; sc): 24.0% | AUC ([5]; sc): 55.0309 µM·h | MRT ([5]; sc): 16.63 h | tmax ([5]; sc): 8 h | t½ ([5]; sc): 9.18 h | half life (intravitreal) [6]: 92.9 h | recognition of AA isoform of PDGF (PDGF AA isoform): not the AA isoform alone | efficacy in animal models [7]: efficacy in the animal models for glomerulonephritis, restenosis, cancer and pulmonary hypertension | ability to block PDGF-induced 3T3 cell proliferation [8]: comparable to the ability of an anti-PDGF antibody | IC50 (PDGF [9]): 2 nM
